Patent US9120749B2, “Quinoline derivatives and MELK inhibitors containing the same” (ONCOTHERAPY SCIENCE, INC., priority 2010, dated 2015)
Counter-ions that a name gives are not always drawn. Like-named read-outs stand apart in the source and are kept apart here.

Assays:
MELK = MELK (Homo sapiens, UniProt Q14680); assay: Kinase assay: MELK activity, phosphorylation of FITC-labeled histone H3 peptide measured by IMAP fluorescence polarization; type: biochemical
Summary of the method: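 Fluorescence polarization was measured 0.5 h (room temperature) after quenching with threefold volume of progressive binding solution. Test compounds from 12.5 mM DMSO stocks were assayed at 1% DMSO.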

T47D cells = assay: Cell-based assay: anti-proliferative activity, Cell Counting Kit-8, 72 hours (T47D)
Summary of the method: (§1)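 Proliferation read with Cell Counting Kit-8 after 72 hours of inhibitor treatment, from seeding of 2,000–3,000 cells/well. Lines: T47D, A549, BT-549; HT-1197, lacking MELK by western blot, served as negative control. IC50 derived.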

A549 cells = assay: Cell-based assay: anti-proliferative activity, Cell Counting Kit-8, 72 hours (A549); conditions: 72 hours
Summary of the method: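 A549 cells were seeded in 96-well plates and exposed to candidate inhibitors for 72 hours. Cell growth was then measured with Cell Counting Kit-8, and IC50 values were calculated from the resulting growth data.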

HT-1197 cells = assay: Cell-based assay: anti-proliferative activity, Cell Counting Kit-8, 72 hours (HT-1197, negative control without MELK expression); conditions: HT1197 cells (negative control), 72 hours
Summary of the method: as §1

DU4475 cells = assay: Cell-based assay: anti-proliferative activity, Cell Counting Kit-8, 72 hours (DU4475)
[1] = hydrochloride, read-out: IC50 (μM) (kinase assay)
[2] = read-out: IC50 (μM) (kinase assay)

MELK, sequence (Q14680 whole entry, looked up): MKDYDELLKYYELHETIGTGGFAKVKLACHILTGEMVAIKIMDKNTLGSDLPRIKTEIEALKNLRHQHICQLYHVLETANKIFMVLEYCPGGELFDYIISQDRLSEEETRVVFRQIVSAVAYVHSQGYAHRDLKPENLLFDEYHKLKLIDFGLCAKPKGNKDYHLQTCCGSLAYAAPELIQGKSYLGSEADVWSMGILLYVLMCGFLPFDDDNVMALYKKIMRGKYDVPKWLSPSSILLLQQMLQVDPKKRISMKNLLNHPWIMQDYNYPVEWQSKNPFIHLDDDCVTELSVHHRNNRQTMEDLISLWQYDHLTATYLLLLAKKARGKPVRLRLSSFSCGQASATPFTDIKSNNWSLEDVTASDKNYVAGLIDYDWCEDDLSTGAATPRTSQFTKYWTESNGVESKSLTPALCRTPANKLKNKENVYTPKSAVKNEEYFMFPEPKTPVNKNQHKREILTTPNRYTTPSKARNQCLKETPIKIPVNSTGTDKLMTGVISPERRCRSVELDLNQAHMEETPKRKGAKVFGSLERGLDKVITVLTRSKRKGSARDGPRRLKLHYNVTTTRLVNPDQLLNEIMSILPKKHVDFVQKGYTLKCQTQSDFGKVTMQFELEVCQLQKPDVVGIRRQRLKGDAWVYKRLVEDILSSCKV

## CC(C)(N)c1ccc(Nc2c(C(=O)C3CC3)cnc3ccc(-c4cc(Cl)c(O)c(Cl)c4)cc23)cc1 [Example 601, {4-[4-(2-Aminopropan-2-yl)phenylamino]-6-(3,5-dichloro-4-hydroxyphenyl)quinolin-3-yl}(cyclopropyl)methanone hydrochloride]
MELK; [1]
  IC50: 0.0014 µM
T47D cells; Homo sapiens, T47D, 72 h
  IC50: 0.09 µM
A549 cells; Homo sapiens, A549, 72 h
  IC50: 0.047 µM
HT-1197 cells; Homo sapiens, HT1197, 72 h
  IC50: 0.42 µM
DU4475 cells; Homo sapiens, DU-4475, 72 h
  IC50: 0.023 µM

## NC1CCN(c2ccc(Nc3c(C(=O)C4CC4)cnc4ccc(-c5cc(F)c(O)c(Cl)c5)cc34)cn2)CC1 [Example 557, (4-(6-(4-aminopiperidin-1-yl)pyridin-3-ylamino)-6-(3-chloro-5-fluoro-4-hydroxyphenyl)quinolin-3-yl)(cyclopropyl)methanone]
MELK
  IC50: 0.0056 µM
T47D cells; Homo sapiens, T47D, 72 h
  IC50: 0.11 µM
A549 cells; Homo sapiens, A549, 72 h
  IC50: 0.52 µM
HT-1197 cells; Homo sapiens, HT1197, 72 h
  IC50: 3.1 µM
DU4475 cells; Homo sapiens, DU-4475, 72 h
  IC50: 0.18 µM

## CCCC(=O)c1cnc2ccc(-c3cc(F)c(O)c(Cl)c3)cc2c1Nc1ccc(N2CCNCC2)nc1 [Example 623, 1-{6-(3-Chloro-5-fluoro-4-hydroxyphenyl)-4-[6-(piperazin-1-yl)pyridin-3-ylamino]quinolin-3-yl}butan-1-one]
MELK; [2]
  IC50: 0.011 µM
T47D cells; Homo sapiens, T47D, 72 h
  IC50: 0.085 µM
A549 cells; Homo sapiens, A549, 72 h
  IC50: 0.2 µM
HT-1197 cells; Homo sapiens, HT1197, 72 h
  IC50: 2 µM
DU4475 cells; Homo sapiens, DU-4475, 72 h
  IC50: 0.1 µM

## COc1cc(-c2ccc3ncc(C(=O)C4CC4)c(N4CCN(C)CC4)c3c2)cc(Cl)c1O [Example 533, (6-(3-chloro-4-hydroxy-5-methoxyphenyl)-4-(4-methylpiperazin-1-yl)quinolin-3-yl)(cyclopropyl)methanone]
MELK; [2]
  IC50: 0.0088 µM
T47D cells; Homo sapiens, T47D, 72 h
  IC50: 0.48 µM
A549 cells; Homo sapiens, A549, 72 h
  IC50: 0.26 µM
HT-1197 cells; Homo sapiens, HT1197, 72 h
  IC50: 2.6 µM
DU4475 cells; Homo sapiens, DU-4475, 72 h
  IC50: 0.4 µM

## COC1CCN(C[C@H]2CC[C@H](Nc3c(C(=O)C4CC4)cnc4ccc(-c5cc(F)c(O)c(Cl)c5)cc34)CC2)C1 (stereo partly drawn) [Example 627, (6-(3-chloro-5-fluoro-4-hydroxyphenyl)-4-((trans-4-((3-methoxypyrrolidin-1-yl)methyl)cyclohexyl)amino)quinolin-3-yl)(cyclopropyl)methanone]
MELK; [2]
  IC50: 0.024 µM
T47D cells; Homo sapiens, T47D, 72 h
  IC50: 0.15 µM
A549 cells; Homo sapiens, A549, 72 h
  IC50: 0.11 µM
HT-1197 cells; Homo sapiens, HT1197, 72 h
  IC50: 0.55 µM
DU4475 cells; Homo sapiens, DU-4475, 72 h
  IC50: 0.083 µM

## COc1cc(-c2ccc3ncc(C(=O)C4CC4)c(Nc4ccc(NC5CCCNC5)nc4)c3c2)cc(Cl)c1O (stereo not drawn) [Example 609, (6-(3-chloro-4-hydroxy-5-methoxyphenyl)-4-(6-(piperidin-3-ylamino)pyridin-3-ylamino)quinolin-3-yl)(cyclopropyl)methanone]
MELK; [2]
  IC50: 0.0025 µM
T47D cells; Homo sapiens, T47D, 72 h
  IC50: 0.22 µM
A549 cells; Homo sapiens, A549, 72 h
  IC50: 0.68 µM
HT-1197 cells; Homo sapiens, HT1197, 72 h
  IC50: 3.9 µM
DU4475 cells; Homo sapiens, DU-4475, 72 h
  IC50: 0.34 µM

## O=C(c1cnc2ccc(-c3cc(Cl)c(O)c(Cl)c3)cc2c1N[C@H]1C[C@H]2CC[C@@H](C1)N2)C1CC1 [Example 580, (4-((1R,3r,5S)-8-azabicyclo[3.2.1]octan-3-ylamino)-6-(3,5-dichloro-4-hydroxyphenyl)quinolin-3-yl)(cyclopropyl)methanone]
MELK; [2]
  IC50: 0.0045 µM
T47D cells; Homo sapiens, T47D, 72 h
  IC50: 0.25 µM
A549 cells; Homo sapiens, A549, 72 h
  IC50: 0.69 µM
HT-1197 cells; Homo sapiens, HT1197, 72 h
  IC50: 4.1 µM
DU4475 cells; Homo sapiens, DU-4475, 72 h
  IC50: 0.12 µM

## CC(=O)c1cnc2ccc(-c3cc(F)c(O)c(Cl)c3)cc2c1Nc1cnc(N2CCNCC2)nc1 [Example 594, 1-(6-(3-chloro-5-fluoro-4-hydroxyphenyl)-4-(2-(piperazin-1-yl)pyrimidin-5-ylamino)quinolin-3-yl)ethanone]
MELK; [2]
  IC50: 0.0048 µM
T47D cells; Homo sapiens, T47D, 72 h
  IC50: 0.025 µM
A549 cells; Homo sapiens, A549, 72 h
  IC50: 0.063 µM
HT-1197 cells; Homo sapiens, HT1197, 72 h
  IC50: 0.66 µM
DU4475 cells; Homo sapiens, DU-4475, 72 h
  IC50: 0.048 µM

## CN(C)Cc1ccc(Nc2c(C(=O)C3CC3)cnc3cc(F)c(-c4cc(Cl)c(O)c(Cl)c4)cc23)cc1 [Example 547, cyclopropyl(6-(3,5-dichloro-4-hydroxyphenyl)-4-(4-((dimethylamino)methyl)phenylamino)-7-fluoroquinolin-3-yl)methanone]
MELK; [2]
  IC50: 0.02 µM
T47D cells; Homo sapiens, T47D, 72 h
  IC50: 0.41 µM
A549 cells; Homo sapiens, A549, 72 h
  IC50: 0.13 µM
HT-1197 cells; Homo sapiens, HT1197, 72 h
  IC50: 1.9 µM
DU4475 cells; Homo sapiens, DU-4475, 72 h
  IC50: 0.14 µM

## COc1cc(-c2ccc3ncc(C(=O)C4CC4)c(N[C@H]4CC[C@H](CN5CC[C@@H](F)C5)CC4)c3c2)cc(Cl)c1O [Example 569]
MELK; [2]
  IC50: 0.011 µM
T47D cells; Homo sapiens, T47D, 72 h
  IC50: 0.62 µM
A549 cells; Homo sapiens, A549, 72 h
  IC50: 0.4 µM
HT-1197 cells; Homo sapiens, HT1197, 72 h
  IC50: 1.8 µM
DU4475 cells; Homo sapiens, DU-4475, 72 h
  IC50: 0.41 µM

## O=C(c1cnc2ccc(-c3cc(F)c(O)c(Cl)c3)cc2c1N[C@H]1C[C@H]2CC[C@@H](C1)N2)C1CC1 [Example 621, (4-((1R,3r,5S)-8-azabicyclo[3.2.1]octan-3-ylamino)-6-(3-chloro-5-fluoro-4-hydroxyphenyl)quinolin-3-yl)(cyclopropyl)methanone]
MELK; [2]
  IC50: 0.01 µM
T47D cells; Homo sapiens, T47D, 72 h
  IC50: 0.24 µM
A549 cells; Homo sapiens, A549, 72 h
  IC50: 0.91 µM
HT-1197 cells; Homo sapiens, HT1197, 72 h
  IC50: 3.9 µM
DU4475 cells; Homo sapiens, DU-4475, 72 h
  IC50: 0.11 µM

## O=C(c1cnc2ccc(-c3cc(F)c(O)c(Cl)c3)cc2c1Nc1cnn(C2CCNCC2)c1)C1CC1 [Example 520]
MELK; [2]
  IC50: 0.0016 µM
T47D cells; Homo sapiens, T47D, 72 h
  IC50: 0.081 µM
A549 cells; Homo sapiens, A549, 72 h
  IC50: 0.52 µM
HT-1197 cells; Homo sapiens, HT1197, 72 h
  IC50: 10 µM
DU4475 cells; Homo sapiens, DU-4475, 72 h
  IC50: 0.042 µM

## NC1CCN(c2ccc(Nc3c(C(=O)C4CC4)cnc4ccc(-c5cc(Cl)c(O)c(Cl)c5)cc34)cn2)C1 (stereo not drawn) [Example 575, (4-(6-(3-aminopyrrolidin-1-yl)pyridin-3-ylamino)-6-(3,5-dichloro-4-hydroxyphenyl)quinolin-3-yl)(cyclopropyl)methanone]
MELK; [2]
  IC50: 0.0031 µM
T47D cells; Homo sapiens, T47D, 72 h
  IC50: 0.028 µM
A549 cells; Homo sapiens, A549, 72 h
  IC50: 0.068 µM
HT-1197 cells; Homo sapiens, HT1197, 72 h
  IC50: 1.2 µM
DU4475 cells; Homo sapiens, DU-4475, 72 h
  IC50: 0.029 µM

## COc1cc(-c2ccc3ncc(C(=O)C4CC4)c(Nc4ccc(N5CCC(N)CC5)nc4)c3c2)cc(Cl)c1O [Example 550, (4-(6-(4-aminopiperidin-1-yl)pyridin-3-ylamino)-6-(3-chloro-4-hydroxy-5-methoxyphenyl)quinolin-3-yl)(cyclopropyl)methanone]
MELK; [2]
  IC50: 0.0057 µM
T47D cells; Homo sapiens, T47D, 72 h
  IC50: 0.1 µM
A549 cells; Homo sapiens, A549, 72 h
  IC50: 0.58 µM
HT-1197 cells; Homo sapiens, HT1197, 72 h
  IC50: 2.7 µM
DU4475 cells; Homo sapiens, DU-4475, 72 h
  IC50: 1 µM

## O=C(c1cnc2ccc(-c3cc(Cl)c(O)c(Cl)c3)cc2c1N[C@H]1CC[C@H](CN2CC[C@@H](F)C2)CC1)C1CC1 [Example 571, cyclopropyl(6-(3,5-dichloro-4-hydroxyphenyl)-4-((trans-4-(((R)-3-fluoropyrrolidin)methyl)cyclohexyl)amino)quinolin-3-yl)methanon]
MELK; [2]
  IC50: 0.0043 µM
T47D cells; Homo sapiens, T47D, 72 h
  IC50: 0.18 µM
A549 cells; Homo sapiens, A549, 72 h
  IC50: 0.16 µM
HT-1197 cells; Homo sapiens, HT1197, 72 h
  IC50: 0.39 µM
DU4475 cells; Homo sapiens, DU-4475, 72 h
  IC50: 0.08 µM

## COc1cc(-c2ccc3ncc(C(C)=O)c(Nc4ccc(C(N)=O)cc4)c3c2)cc(Cl)c1O [Example 544, 4-(3-acetyl-6-(3-chloro-4-hydroxy-5-methoxyphenyl)quinolin-4-ylamino)benzamide]
MELK; [2]
  IC50: 0.018 µM
T47D cells; Homo sapiens, T47D, 72 h
  IC50: 0.17 µM
A549 cells; Homo sapiens, A549, 72 h
  IC50: 0.47 µM
HT-1197 cells; Homo sapiens, HT1197, 72 h
  IC50: 2.2 µM
DU4475 cells; Homo sapiens, DU-4475, 72 h
  IC50: 0.2 µM

## NC1CCN(c2ncc(Nc3c(C(=O)C4CC4)cnc4ccc(-c5cc(F)c(O)c(Cl)c5)cc34)cn2)CC1 [Example 567, (4-(2-(4-aminopiperidin-1-yl)pyrimidin-5-ylamino)-6-(3-chloro-5-fluoro-4-hydroxyphenyl)quinolin-3-yl)(cyclopropyl)methanone]
MELK; [2]
  IC50: 0.0083 µM
T47D cells; Homo sapiens, T47D, 72 h
  IC50: 0.076 µM
A549 cells; Homo sapiens, A549, 72 h
  IC50: 0.34 µM
HT-1197 cells; Homo sapiens, HT1197, 72 h
  IC50: 1.9 µM
DU4475 cells; Homo sapiens, DU-4475, 72 h
  IC50: 0.18 µM

## NC1CCCN(c2ccc(Nc3c(C(=O)C4CC4)cnc4ccc(-c5cc(F)c(O)c(Cl)c5)cc34)cn2)C1 (stereo not drawn) [Example 562, (4-(6-(3-aminopiperidin-1-yl)pyridin-3-ylamino)-6-(3-chloro-5-fluoro-4-hydroxyphenyl)quinolin-3-yl)(cyclopropyl)methanone hydrochloride]
MELK; [1]
  IC50: 0.0017 µM
T47D cells; 72 hours, hydrochloride
  IC50: 0.0064 µM
A549 cells; hydrochloride
  IC50: 0.012 µM
HT-1197 cells; hydrochloride
  IC50: 0.19 µM
DU4475 cells; hydrochloride
  IC50: 0.0089 µM
